{
  "source": "patent US20220088115A1",
  "about": "“PHARMACEUTICAL COMPOSITION, COMPRISING INHIBITORY PEPTIDE AGAINST FAS SIGNALING, FOR PREVENTION OR TREATMENT OF OBESITY, FATTY LIVER, OR STEATOHEPATITIS” (SIGNET BIOTECH INC., priority 2018, published 2022)",
  "key": {"3T3L1 cell line [1]": {"test_system": "3T3L1 cell line", "assay": "Free fatty acid (FFA) release into 3T3L1 cell culture solution", "type": "cell-based, murine", "conditions": "3T3L1 treated with FasL and FBP-8", "method": "(§1) The 3T3L1 cell line was cultured in a DMEM culture medium containing 10% FBS, 1% penicillin, 1% streptomycin, and 25 mM glucose. The 3T3L1 cell line was aliquoted into the above DMEM culture solution at a concentration of 2×10^5 cells/ml to induce adipocyte maturation for 3 days, and then replaced with a culture solution containing insulin to induce adipocyte maturation again for 3 days. Thereafter, the 3T3L1 cell line was further cultured in the above DMEM culture solution for 2 days to achieve complete maturation of adipocytes."}, "3T3L1 cell line [2]": {"test_system": "3T3L1 cell line", "assay": "Expression of inflammation-related genes in 3T3L1 cell line treated with FasL and peptide", "type": "cell-based, murine", "conditions": "differentiated 3T3L1 treated with Fas ligand and FBP-8 in combination", "method": "as §1\n(§2) mRNA was extracted from liver tissues and white adipose tissues using RNAiso (Takara, Japan), and cDNA was synthesized with an iscript cDNA synthesis kit (Bio-Rad Laboratories, USA). Thereafter, a gene expression level was analyzed by the 7500 Fast Real-time PCR system (Applied Biosystems, USA). The expression level of each gene was normalized with the expression level of a GAPDH gene, and then calculated as a relative gene expression level with respect to the control."}, "[3]": {"assay": "Delivery of fluorescently labeled peptide to tissues of obesity model mice (HFD)", "type": "in vivo, C57BL/6 mice", "method": "(§3) All animal experiments performed for the present invention were approved by the Institutional Animal Care and Use Committee of Hanyang University. […] Thereafter, depending on the experimental group, 60 μg/one time of FBP8 were administered by intravenous injection twice a week for a total of 5 weeks (FIG. 13), or FBP7 was administered by subcutaneous injection twice a day.\n100 μg of an Alexa 647-bound peptide was administered by intravenous injection into obesity model mice, and after 12, 24, and 48 hours, the tissues were isolated, and the fluorescence signals in each tissue were analyzed with an image station fluorescence analyzer (Carestream). After the fluorescence signal analysis, the relative fluorescence intensity of each tissue was compared using an ImageJ program provided by NIH.\nIn addition, 100 μg of Alexa 488-bound FBP was administered by intravenous injection into obesity model mice to confirm whether cell units of peptides were delivered to liver tissues, and frozen tissue sections were produced by isolating the liver tissues after 12, 24, and 48 hours. Thereafter, the nuclei were stained with Hoechst 33342, and the fluorescence signals were analyzed under a TCS-SP5 confocal microscope.\nBased on the Fas-specific binding ability of FBP-8 confirmed by the experiments, it was confirmed whether FBP-8 could be specifically delivered to liver tissues or adipose tissues when systemically delivered by intravenous injection or subcutaneous injection. Fluorescently labeled FBP-8 was injected by intravenous injection or subcutaneous injection into obesity model mice in the high fat diet group, and after 24 and 48 hours, the fluorescence distribution was investigated by isolating each organ."}, "Fas": {"target": "T1, Fas (Homo sapiens, UniProt P25445)", "T1 construct": "A Jurkat cell line, in which Fas is always expressed; host or cells: Jurkat", "T1 sequence (P25445 26-335)": "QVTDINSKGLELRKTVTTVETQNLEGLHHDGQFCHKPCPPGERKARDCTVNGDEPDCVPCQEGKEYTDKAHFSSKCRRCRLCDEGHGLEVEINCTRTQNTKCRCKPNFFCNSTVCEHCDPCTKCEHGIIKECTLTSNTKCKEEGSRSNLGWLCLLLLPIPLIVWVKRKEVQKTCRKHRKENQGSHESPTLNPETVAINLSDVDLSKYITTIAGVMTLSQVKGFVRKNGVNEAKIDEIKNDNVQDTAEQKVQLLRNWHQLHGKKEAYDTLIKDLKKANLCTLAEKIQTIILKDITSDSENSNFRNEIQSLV", "assay": "Binding of Alexa647-labeled peptides to Fas-expressing Jurkat cell line", "conditions": "Jurkat cell line always expressing Fas; Alexa647-labeled peptide", "method": "A Jurkat cell line which is a human blood cancer cell line and a 3T3L1 cell line which is a murine adipocyte were purchased from ATCC (USA), and the Jurkat cell line was cultured in an RPMI culture medium containing 10% fetal bovine serum (FBS), 1% penicillin, 1% streptomycin, and 25 mM glucose.\nA Jurkat cell line, in which Fas is always expressed, was treated with an FITC-labeled Fas antibody and treated with Alexa647-labeled FBP-8, FBP-A, FBP-7 or control peptide (YCNSTVCY; CtrFBP)."}, "3T3L1 cell line [4]": {"test_system": "3T3L1 cell line", "assay": "Cytotoxicity by CCK-8 analysis kit in 3T3L1 cell line", "type": "cell-based, murine", "conditions": "differentiated 3T3L1 cell lines, 100 μM to 1000 μM, 24 hours", "method": "as §1\nThe cytotoxicity experiments of the peptides described in 1. above were performed by a CCK-8 analysis kit (Dojindo Laboratories, Japan). The 3T3L1 cell line was treated with peptides at various concentrations (uM) and cytotoxicity was analyzed after 24 hours."}, "obesity model mice [5]": {"test_system": "obesity model mice", "assay": "Pro-inflammatory cytokines in blood, obesity model mice, intravenous FBP-8", "type": "in vivo, C57BL/6 mice", "method": "as §3\n(§4) The cytokine levels of serum and tissues were analyzed with an ELISA kit (eBioscience, USA), and the triglyceride levels of liver tissues were confirmed with a triglyceride assay kit (Cayman, USA)."}, "3T3L1 cell line [6]": {"test_system": "3T3L1 cell line", "assay": "Inflammation-related cytokines in 3T3L1 cell culture solution (ELISA)", "type": "cell-based, murine", "conditions": "3T3L1 treated with FasL and FBP-8", "method": "as §1, §4"}, "obesity model mice [7]": {"test_system": "obesity model mice", "assay": "Daily food intake and body weight change, obesity model mice, intravenous FBP-8", "type": "in vivo, C57BL/6 mice", "method": "as §3\n(§5) Obesity model mice were produced by feeding normal mice a high fat diet for 8 weeks, and FBP-8 was administered by intravenous injection twice a week for a total of 5 weeks (FIG. 13). After five weeks, the obesity model mice were sacrificed to isolate white adipose tissues and liver tissues and analyze the proportion of dead cells by TUNEL staining."}, "obesity model mice [8]": {"test_system": "obesity model mice", "assay": "TUNEL staining of dead cells, obesity model mice, intravenous FBP-8", "type": "in vivo, C57BL/6 mice", "conditions": "intravenous twice a week for 5 weeks", "method": "as §3\nFurthermore, a terminal deoxynucleotidyl transferase dUTP nick end labeling (TUNEL) analysis for each tissue was performed with an in situ cell death detection kit (Millipore, USA). Thereafter, the fluorescence signals were analyzed under a TCS-SP5 confocal microscope by staining the nuclei with Hoechst 33342, and the fluorescence signals of each cell were analyzed with the Image J program.\nas §5"}, "obesity model mice [9]": {"test_system": "obesity model mice", "assay": "Blood fatty acid, insulin, triglyceride, ALT and liver triglyceride, obesity model mice, intravenous FBP-8", "type": "in vivo, C57BL/6 mice", "method": "as §3, §4"}, "[10]": {"assay": "Delivery of fluorescently labeled peptide to organs of normal body weight mice", "type": "in vivo", "conditions": "intravenous (IV) or subcutaneous (SC) injection, 12 hours"}, "obesity model mice [11]": {"test_system": "obesity model mice", "assay": "Gene expression in white adipose and liver tissues, obesity model mice, intravenous FBP-8", "type": "in vivo, C57BL/6 mice", "method": "as §3, §2, §5"}, "[12]": {"conditions": "intravenous, liver tissue sections"}, "[13]": {"conditions": "compared to negative control (CtrFBP)"}},
  "data": [
    {"sequence": "YCDEHFCY (Fas binding peptide-8 (FBP-8))", "values": [
      {"measurement": "extracellular release of fatty acids (FFA)", "setting": "3T3L1 cell line [1]", "value": "significantly inhibited"},
      {"measurement": "expressions of inflammation-related genes Fas, TNF-α, MCP-1, F4/80, IL-6 and iNOS", "setting": "3T3L1 cell line [2]", "value": "remarkably reduced"},
      {"measurement": "tissue delivery after intravenous injection", "setting": "[3]; intravenous, 24 and 48 hours", "value": "specifically delivered to the liver tissue and white adipose tissue"},
      {"measurement": "time from which peptide was delivered to the liver tissue after intravenous injection", "setting": "[3]; [12]", "value": 12, "unit": "h"},
      {"measurement": "time until which peptide remained in the liver tissue after intravenous injection", "setting": "[3]; [12]", "value": 48, "unit": "h"},
      {"measurement": "time remaining in the liver tissue after subcutaneous injection", "setting": "[3]; subcutaneous", "value": "≥ 48", "unit": "h"},
      {"measurement": "tissue delivery after subcutaneous injection", "setting": "[3]; subcutaneous, compared to CtrFBP, 24 and 48 hours", "value": "specifically delivered to the liver tissue"},
      {"measurement": "binding to Jurkat cells (Alexa647 signal)", "setting": "Fas", "value": "bound to Jurkat cells at similar levels"},
      {"measurement": "cytotoxicity", "setting": "3T3L1 cell line [4]", "value": "little cytotoxicity was observed"},
      {"measurement": "concentrations of IL-6 and MCP-1 in blood", "setting": "obesity model mice [5]", "value": "decrease"},
      {"measurement": "concentrations of IL-6 and MCP-1 in the cell culture solution", "setting": "3T3L1 cell line [6]", "value": "reduces"},
      {"measurement": "daily food intake", "setting": "obesity model mice [7]", "value": "no significant change"},
      {"measurement": "body weight gain", "setting": "obesity model mice [7]; [13]", "value": "slower"},
      {"measurement": "proportion of dead cells in liver tissue (TUNEL)", "setting": "obesity model mice [8]", "value": "9±2.37", "unit": "%"},
      {"measurement": "proportion of dead cells in white adipose tissue (TUNEL)", "setting": "obesity model mice [8]", "value": "31+2.37%"},
      {"measurement": "reduction of triglyceride (TG) concentration in blood", "setting": "obesity model mice [9]", "value": "about 25%"},
      {"measurement": "reduction of triglyceride (TG) concentration in the liver tissue", "setting": "obesity model mice [9]", "value": "about 50%"},
      {"measurement": "decrease of fatty acid concentration in blood", "setting": "obesity model mice [9]; [13]", "value": "about 20%"},
      {"measurement": "decrease of insulin concentration in blood", "setting": "obesity model mice [9]; [13]", "value": "about 20%"},
      {"measurement": "reduction of blood alanine aminotransferase (ALT) level", "setting": "obesity model mice [9]; [13]", "value": "≥ 30", "unit": "%"},
      {"measurement": "fluorescence signal in the liver tissue of normal mice", "setting": "[10]", "value": "a significant fluorescence signal could not be observed"},
      {"measurement": "expression level of CD206 (anti-inflammatory macrophage marker) in liver tissues", "setting": "obesity model mice [11]", "value": "no significant change"},
      {"measurement": "expression levels of F480 and CD11c (pro-inflammatory macrophage markers) in white adipose tissue", "setting": "obesity model mice [11]; [13]", "value": "significantly reduced"},
      {"measurement": "expression levels of F480 and CD11c in liver tissues", "setting": "obesity model mice [11]; [13]", "value": "decreased"},
      {"measurement": "expression levels of inflammation-related genes Fas, TNF-α, MCP-1 and IL-6 in liver tissues", "setting": "obesity model mice [11]; [13]", "value": "significantly reduced"},
      {"measurement": "expression of inflammation-related genes Fas, TNF-α, MCP-1 and IL-6 in white adipose tissues", "setting": "obesity model mice [11]; [13]", "value": "reduced"},
      {"measurement": "reduction of stearoyl-CoA desaturase (SCD-1) expression level in liver tissues", "setting": "obesity model mice [11]; [13]", "value": "about 30+5.32%"}
    ]}
  ]
}
